Experiment: Heparin affinity chromatography
Type: binding
Conditions: TSKgel Heparin-5PW column, 10 mM phosphate buffer, pH 7.2
Description: Heparin binding chromatography was performed by high performance liquid chromatography (HPLC; Shimadzu, Japan). A linear gradient of mobile phase A (10 mM phosphate buffer, pH 7.2) and mobile phase B (0.75 M NaCl in 10 mM phosphate buffer, pH 7.2) was used with a TSKgel Heparin-5PW column ([…], 10 μm; Tosoh Bioscience, Japan).

SIGGIR
binding to heparin HPLC affinity column: did not bind
